In paper PMC6982223, “Design, Synthesis and Molecular Modeling Study of Conjugates of ADP and Morpholino Nucleosides as A Novel Class of Inhibitors of PARP-1, PARP-2 and PARP-3” (International Journal of Molecular Sciences, 2019):

Experiments:
Type in all cases: biochemical
[1] = molecular target: T1, Human recombinant poly(ADP-ribose)-polymerase 1 (Homo sapiens, UniProt P09874); assay: autopoly(ADP-ribosyl)ation of PARP-1, [32P]NAD+ incorporation; settings: for remaining activity at 1000 µM / Residual PARP-1 activity: in the presence of 1 mM compound; for remaining activity at 1000 µM: read-out: Residual PARP-1 activity (converted); for IC50: autopoly(ADP-ribosyl)ation, 0.3 mM NAD+
T1 construct: made in house
T1 sequence (P09874 whole entry): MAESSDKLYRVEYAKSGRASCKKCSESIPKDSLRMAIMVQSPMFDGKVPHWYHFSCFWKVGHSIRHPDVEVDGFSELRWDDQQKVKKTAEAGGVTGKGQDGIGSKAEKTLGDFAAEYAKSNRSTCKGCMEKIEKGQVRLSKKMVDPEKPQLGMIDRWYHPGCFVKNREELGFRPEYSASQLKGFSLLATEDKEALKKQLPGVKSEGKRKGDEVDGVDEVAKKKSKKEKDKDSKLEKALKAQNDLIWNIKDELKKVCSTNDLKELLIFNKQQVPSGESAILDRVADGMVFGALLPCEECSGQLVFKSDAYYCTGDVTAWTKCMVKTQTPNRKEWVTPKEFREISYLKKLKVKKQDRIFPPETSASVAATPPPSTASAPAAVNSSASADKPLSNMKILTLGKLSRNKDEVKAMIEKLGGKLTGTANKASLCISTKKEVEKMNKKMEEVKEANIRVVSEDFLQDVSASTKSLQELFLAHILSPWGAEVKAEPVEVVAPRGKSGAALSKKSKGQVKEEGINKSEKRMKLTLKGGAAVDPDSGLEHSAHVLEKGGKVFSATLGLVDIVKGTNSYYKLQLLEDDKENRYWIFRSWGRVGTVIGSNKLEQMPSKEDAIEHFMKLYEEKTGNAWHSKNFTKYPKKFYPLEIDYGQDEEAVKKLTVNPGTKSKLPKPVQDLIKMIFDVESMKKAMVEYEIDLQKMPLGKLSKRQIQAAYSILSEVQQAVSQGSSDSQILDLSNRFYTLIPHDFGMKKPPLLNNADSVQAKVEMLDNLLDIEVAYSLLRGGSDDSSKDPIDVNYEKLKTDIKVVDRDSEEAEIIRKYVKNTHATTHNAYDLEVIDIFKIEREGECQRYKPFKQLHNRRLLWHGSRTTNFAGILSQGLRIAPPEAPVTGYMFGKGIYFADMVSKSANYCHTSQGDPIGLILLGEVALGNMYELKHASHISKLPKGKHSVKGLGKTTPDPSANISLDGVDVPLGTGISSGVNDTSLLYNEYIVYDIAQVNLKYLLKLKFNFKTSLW
From the text: (§1) The oligonucleotides were purchased from Biosset (Novosibirsk, Russia). The reagents, solvents and the basic components of buffers were purchased from Sigma (St. Louis, MO, USA), Acros organics (Waltham, MA, USA) or Promega (Madison, WI, USA). γ–[^32P]-ATP and α–[^32P]-ATP (with specific activities of 5000 and 3000 Ci/mmol, respectively) were from the Laboratory of Biotechnology (Institute of Chemical Biology and Fundamental Medicine, Novosibirsk, Russia). T4 polynucleotide kinase was from Biosan (Novosibirsk, Russia). SUMO fusion expression vector pETHSUL (GenBank: EF205333.1) and pSUPER vector coding for the catalytic domain of the S. cerevisiae SUMO hydrolase dtUD1 were kindly provided by Dr. P. Loll (Drexel University, Philadelphia, USA). His6 and Strep-II double-tagged dtUD1 hydrolase was expressed and purified as described in ref. [81]. Human recombinant poly(ADP-ribose)-polymerase 1 (EC 2.4.2.30) was prepared as described previously. Murine recombinant poly(ADP-ribose)-polymerase 2 (EC 2.4.2.30) was purified as described previously. Plasmid encoding human PARP-3 was kindly provided by Dr. A. Ishchenko (Gustave Roussy, Université Paris-Saclay, France). Poly(ADP-ribose)-polymerase 3 (EC 2.4.2.30) was purified according to [6].
(§2) The reaction of autopoly(ADP-ribosyl)ation was carried out as follows: for PARP-1 50 mM tris-HCl, pH 8.0, 20 mM MgCl2, 150 mM NaCl, and 7 mM β-mercaptoethanol, activated DNA 2 OE/mL, 0.3 mM [^32P] NAD+ at 37 °C. The reaction was initiated by adding PARP-1 to 200 nM and the reaction mixtures were incubated for 1.5 min. For PARP-2: 50 mM tris-HCl, pH 8.0, 3 mM spermin, 150 mM NaCl, and 7 mM β-mercaptoethanol, activated DNA 2 OE/mL, 0.6 mM [^32P] NAD+ at 37 °C. The reaction was initiated by adding PARP-2 to 800 nM and the reaction mixtures were incubated for 5 min. The reaction was stopped by placing 10 μL aliquots onto Whatman 1 paper filters soaked with 5 % TCA. The filters were washed with 5% TCA for four times and dried in air after the removal of TCA with 90% ethanol. The incorporation of radioactivity into the product was calculated with a Tri-Carb 2800 scintillation counter (Perkin Elmer, Waltham, MA, USA) according to the Cherenkov method or using Typhoon FLA 9500 scanner (GE Healthcare, Chicago, IL, USA). To determine the IC50 value of inhibitors (concentration of the compound required reducing the enzyme activity by 50%), we studied the activity of the enzyme at different concentrations of inhibitors. Measurements were done in at least two independent experiments. IC50 values were calculated using the Origin Pro 8.0 software by nonlinear regression analysis.

[2] = molecular target: T2, Murine recombinant poly(ADP-ribose)-polymerase 2 (Mus musculus, UniProt O88554); assay: autopoly(ADP-ribosyl)ation of PARP-2, [32P]NAD+ incorporation; settings: for remaining activity at 1000 µM / Residual PARP-2 activity: in the presence of 1 mM compound; for remaining activity at 1000 µM: read-out: Residual PARP-2 activity (converted); for IC50: autopoly(ADP-ribosyl)ation, 0.6 mM NAD+
T2 construct: made in house
T2 sequence (O88554 whole entry): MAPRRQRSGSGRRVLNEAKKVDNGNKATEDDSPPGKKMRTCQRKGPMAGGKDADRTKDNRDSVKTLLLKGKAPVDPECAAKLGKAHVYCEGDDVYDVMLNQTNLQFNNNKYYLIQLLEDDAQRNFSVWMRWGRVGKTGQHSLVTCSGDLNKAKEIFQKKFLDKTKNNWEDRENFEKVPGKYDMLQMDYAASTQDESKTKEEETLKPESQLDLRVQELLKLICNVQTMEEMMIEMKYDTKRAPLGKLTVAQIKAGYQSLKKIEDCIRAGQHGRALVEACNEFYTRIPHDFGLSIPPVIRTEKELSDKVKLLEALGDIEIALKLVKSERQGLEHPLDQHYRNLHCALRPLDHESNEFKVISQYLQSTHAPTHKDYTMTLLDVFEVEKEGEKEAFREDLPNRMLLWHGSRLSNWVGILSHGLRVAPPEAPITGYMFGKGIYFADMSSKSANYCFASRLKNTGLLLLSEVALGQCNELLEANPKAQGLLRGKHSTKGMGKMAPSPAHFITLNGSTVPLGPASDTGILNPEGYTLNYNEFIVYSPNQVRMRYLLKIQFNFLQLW
From the text: as §1, §2

PARP-1 = molecular target: T3, PARP-1 (Homo sapiens, UniProt P09874); assay: kinetics of PARP-1 inhibition (Km, Vmax, type of inhibition) by fluorescence anisotropy; settings: for type of inhibition: PARP-1 catalyzed reaction, versus NAD+
T3 construct: made in house
T3 sequence (P09874 whole entry): as the sequence (P09874 whole entry) above
Experimental: The type of inhibition was determined based on at what stage of the reaction the inhibitor binds to the enzyme (before or after the substrate binding) and where it binds (at the substrate binding site or elsewhere). There are four types of inhibition: competitive, whereby an inhibitor binding occurs at the substrate-binding site; noncompetitive, where an inhibitor binds at the allosteric center; mixed with inhibitor binding at both the active and allosteric center; or uncompetitive under an inhibitor binding to the enzyme-substrate complex. Determination of the type of inhibition is necessary to confirm the computer simulation data and to plan further modifications of the inhibitor structure. The type of inhibition can be determined from the plots of the reaction parameters, such as maximum rates, Vmax and the apparent Michaelis constant, Km, values, versus inhibitor concentration. […] Noncompetitive inhibition leads to a decrease of Vmax and retention of the Km values. Mixed inhibition is a superposition of the first two, and is characterized by a decrease in the reaction rate and an increase in Km values. In the case of uncompetitive inhibition, both […].
To determine the type of inhibition of the studied compounds, the activity of PARP-1 was measured at presence of three different inhibitor concentrations at nine NAD+ substrate concentrations by the fluorescence anisotropy technique. Based on the obtained data, dependence graphs of the initial reaction rate on the substrate concentration were constructed, and reaction parameters such as maximum reaction rate (Vmax) and apparent Michaelis constant (Km) values were found (Tables S3 and S4, Supporting). To determine the type of inhibition, we plotted the dependence graph of Vmax and Km values on the inhibitor concentration using OriginPro 8.6.0 software. (Figure 3). […] Therefore, the results of modeling of the binding type of these compounds in the enzyme’s active center are legitimate.
The determination of the kinetic parameters of inhibition Km and Vmax was carried out as described. In all experiments, the points on the experimental curves represent the average of a minimum three independent experiments.

Compound | remaining activity at 1000 µM [1] [%] | remaining activity at 1000 µM [2] [%] | IC50 [2] [µM] | also measured
Nc1ncnc2c1ncn2C1OC(COP(=O)(O)OP(=O)(O)OCC2CNCC(n3cc(Cl)c(=O)[nH]c3=O)O2)C(O)C1O (centres unmarked) [Compound 4ClU] | 57.5 | 46.8 | – | –
O=c1ccn([C@@H]2O[C@H](CO)[C@@H](O)[C@H]2O)c(=O)[nH]1 [Urd, reference compound] | – | – | – | Residual PARP-2 activity [2]: 96% ± 10%
Nc1nc2c(ncn2[C@H]2CNC[C@@H](CO)O2)c(=O)[nH]1 [Compound 11G] | – | 64 | – | –
O=c1[nH]c(=O)n([C@H]2CNC[C@@H](CO)O2)cc1Cl [Compound 11ClU] | – | – | 378 | IC50 [1]: 233 ± 25 µM
Cc1cn(C2CNCC(COP(=O)(O)OP(=O)(O)OCC3OC(n4cnc5c(N)ncnc54)C(O)C3O)O2)c(=O)[nH]c1=O (centres unmarked) [Compound 4T] | 40 | – | 474 | –
O=c1[nH]c(=O)n([C@H]2CNC[C@@H](CO)O2)cc1I [Compound 11IU] | – | – | 85 ± 9 | IC50 [1]: 53 ± 12 µM; type of inhibition (PARP-1): competitive inhibitors; Vmax (PARP-1; inhibitor concentration 50 μМ): 0.066 RFU/sec; Vmax (PARP-1; inhibitor concentration 100 μМ): 0.066 RFU/sec; Vmax (PARP-1; inhibitor concentration 500 μМ): 0.060 RFU/sec
Nc1ccn(C2CNCC(COP(=O)(O)OP(=O)(O)OCC3OC(n4cnc5c(N)ncnc54)C(O)C3O)O2)c(=O)n1 (centres unmarked) [Compound 4C] | 96 | 66 | – | –
Nc1nc2c(ncn2C2CNCC(CNP(=O)(O)OP(=O)(O)OCC3OC(n4cnc5c(N)ncnc54)C(O)C3O)O2)c(=O)[nH]1 (centres unmarked) [Compound 10G] | 74 | – | 224 | –
Nc1ncnc2c1ncn2[C@H]1CNC[C@@H](CO)O1 [Compound 11A] | 82 | 90 | – | –
O=c1ccn([C@H]2CNC[C@@H](CO)O2)c(=O)[nH]1 [Compound 11U] | 91 | 97 | – | –
Nc1ncnc2c1ncn2C1OC(COP(=O)(O)OP(=O)(O)NCC2CNCC(n3cc(Cl)c(=O)[nH]c3=O)O2)C(O)C1O (centres unmarked) [Compound 10ClU] | 46 | 47 | – | –
Nc1ncnc2c1ncn2C1OC(COP(=O)(O)OP(=O)(O)OCC2CNCC(n3cc(I)c(=O)[nH]c3=O)O2)C(O)C1O (centres unmarked) [Compound 4IU] | – | – | 160 | IC50 [1]: 255 µM; type of inhibition (PARP-1): mixed inhibitor; Vmax (PARP-1; inhibitor concentration 50 μМ): 0.16 RFU/sec; Vmax (PARP-1; inhibitor concentration 100 μМ): 0.15 RFU/sec; Vmax (PARP-1; inhibitor concentration 500 μМ): 0.14 RFU/sec
Cc1cn(C2CNCC(CNP(=O)(O)OP(=O)(O)OCC3OC(n4cnc5c(N)ncnc54)C(O)C3O)O2)c(=O)[nH]c1=O (centres unmarked) [Compound 10T] | – | – | 136 | IC50 [1]: 220 µM
Nc1ncnc2c1ncn2C1OC(COP(=O)(O)OP(=O)(O)NCC2CNCC(n3ccc(=O)[nH]c3=O)O2)C(O)C1O (centres unmarked) [Compound 10U] | 89 | 33 | – | –
O=c1[nH]c(=O)n([C@@H]2O[C@H](CO)[C@@H](O)[C@H]2O)cc1Br [Compound 5-Br-Urd, 5-Br-uridine, reference compound] | – | – | 190 ± 16 | IC50 [1]: 244 ± 83 µM
Nc1ccn(C2CNCC(CNP(=O)(O)OP(=O)(O)OCC3OC(n4cnc5c(N)ncnc54)C(O)C3O)O2)c(=O)n1 (centres unmarked) [Compound 10C] | 87.5 | 34.5 | – | –

Compound | remaining activity at 1000 µM [1] [%] | remaining activity at 1000 µM [2] [%] | IC50 [2] [µM] | also measured
Cc1cn([C@H]2CNC[C@@H](CO)O2)c(=O)[nH]c1=O [Compound 11T] | – | – | 114 ± 32 | IC50 [1]: 148 ± 53 µM
NC(=O)c1cccc(N)c1 [Compound 3-AB, 3-aminobenzamide, reference compound] | – | – | – | Vmax (PARP-1; inhibitor concentration 50 μМ): 0.16 RFU/sec; Vmax (PARP-1; inhibitor concentration 100 μМ): 0.16 RFU/sec; Vmax (PARP-1; inhibitor concentration 500 μМ): 0.16 RFU/sec
Nc1ccn([C@@H]2O[C@H](CO)[C@@H](O)[C@H]2O)c(=O)n1 [Cyd, reference compound] | – | – | – | Residual PARP-1 activity [1]: 81% ± 16%; Residual PARP-2 activity [2]: 85% ± 4%
O=c1[nH]c(=O)n([C@@H]2O[C@H](CO)[C@@H](O)[C@H]2O)cc1I [Compound 5-I-Urd, 5-I-uridine, reference compound] | – | – | 26.5 ± 3.5 | IC50 [1]: 49 ± 9 µM
Nc1ncnc2c1ncn2C1OC(COP(=O)(O)OP(=O)(O)OCC2CNCC(n3cc(Br)c(=O)[nH]c3=O)O2)C(O)C1O (centres unmarked) [Compound 4BrU] | 36 | – | 474 | –
O=c1[nH]c(=O)n([C@H]2CNC[C@@H](CO)O2)cc1Br [Compound 11BrU] | – | – | 210 ± 48 | IC50 [1]: 61 ± 16 µM
Nc1ccn([C@H]2CNC[C@@H](CO)O2)c(=O)n1 [Compound 11C] | – | 58 | – | –
Cc1cn([C@@H]2O[C@H](CO)[C@@H](O)[C@H]2O)c(=O)[nH]c1=O [rThd, reference compound] | – | – | 330 ± 61 | IC50 [1]: 277 ± 107 µM
Nc1nc2c(ncn2C2CNCC(COP(=O)(O)OP(=O)(O)OCC3OC(n4cnc5c(N)ncnc54)C(O)C3O)O2)c(=O)[nH]1 (centres unmarked) [Compound 4G] | 45.5 | 34 | – | –
O=c1[nH]c(=O)n([C@@H]2O[C@H](CO)[C@@H](O)[C@H]2O)cc1Cl [Compound 5-Cl-Urd, 5-Cl-uridine, reference compound] | – | – | 196 ± 25 | Residual PARP-1 activity [1]: 82% ±17%
Nc1nc2c(ncn2[C@@H]2O[C@H](CO)[C@@H](O)[C@H]2O)c(=O)[nH]1 [Guo, reference compound] | – | – | – | Residual PARP-1 activity [1]: 60% ± 13%; Residual PARP-2 activity [2]: 46% ± 25%
Nc1ncnc2c1ncn2C1OC(COP(=O)(O)OP(=O)(O)OCC2CNCC(n3ccc(=O)[nH]c3=O)O2)C(O)C1O (centres unmarked) [Compound 4U] | 93 | 67 | – | –
Nc1ncnc2c1ncn2[C@@H]1O[C@H](CO)[C@@H](O)[C@H]1O [Ado, reference compound] | – | – | – | Residual PARP-1 activity [1]: 77% ± 21%; Residual PARP-2 activity [2]: 86% ± 1%
Nc1ncnc2c1ncn2C1OC(COP(=O)(O)OP(=O)(O)NCC2CNCC(n3cc(Br)c(=O)[nH]c3=O)O2)C(O)C1O (centres unmarked) [Compound 10BrU] | 60 | – | 254 | –
Nc1ncnc2c1ncn2C1CNCC(COP(=O)(O)OP(=O)(O)OCC2OC(n3cnc4c(N)ncnc43)C(O)C2O)O1 (centres unmarked) [Compound 4A] | 80 | – | 421 ± 6 | –
